Results: ChEMBL document CHEMBL3885881, “DrugMatrix”

Species on record: Rattus norvegicus
Experiment: DrugMatrix - Regimen: Daily Repeat
Assay type: toxicity, organism-based, Sprague-Dawley
Design: regimen Daily Repeat, gender Male, age 6-8 weeks
Details: in vivo, sc, route subcutaneous, […]; for ABSOLUTE BASOPHIL / ABSOLUTE EOSINOPHIL / ABSOLUTE LYMPHOCYTE / ABSOLUTE MONOCYTE / ABSOLUTE SEGMENTED NEUTROPHIL / BASOPHIL / EOSINOPHIL / ERYTHROCYTE COUNT / HEMATOCRIT / HEMOGLOBIN / LEUKOCYTE COUNT / LYMPHOCYTE / MEAN CORPUSCULAR HEMOGLOBIN / MEAN CORPUSCULAR HEMOGLOBIN CONCENTRATION / MEAN CORPUSCULAR VOLUME / MONOCYTE / NEUTROPHIL / NUCLEATED RED BLOOD CELLS / PLATELET COUNT: tissue Blood; for ALANINE AMINOTRANSFERASE / ALBUMIN / ALKALINE PHOSPHATASE / ASPARTATE AMINOTRANSFERASE / BLOOD UREA NITROGEN / CARBON DIOXIDE / CHLORIDE / CHOLESTEROL / CREATINE PHOSPHOKINASE / CREATININE / GLUCOSE / LACTATE DEHYDROGENASE / LIPASE / PHOSPHORUS / POTASSIUM / SODIUM / TOTAL BILIRUBIN / TOTAL PROTEIN / URIC ACID: tissue Plasma
[1] = 0 mg/kg, 72 h, dose level Control, time 3 day
[2] = 0 mg/kg, 120 h, dose level Control, time 5 day
[3] = 56 mg/kg, 72 h, dose level M1, time 3 day

O=C(Nc1ccc(Br)cc1)c1cc(Br)cc(Br)c1O [TRIBROMSALAN]
ABSOLUTE BASOPHIL [1]: 0 CELLS/uL
ABSOLUTE EOSINOPHIL [1]: 42.67 CELLS/uL
ABSOLUTE LYMPHOCYTE [1]: 10202 CELLS/uL
ABSOLUTE MONOCYTE [1]: 261.5 CELLS/uL
ABSOLUTE SEGMENTED NEUTROPHIL [1]: 2193.83 CELLS/uL
BASOPHIL [1]: 0%
EOSINOPHIL [1]: 0.33%
ERYTHROCYTE COUNT [1]: 5.63 x10E6/uL
HEMATOCRIT [1]: 35.35%
HEMOGLOBIN [1]: 13.07 G/DL
LEUKOCYTE COUNT [1]: 12.7 x10E3/uL
LYMPHOCYTE [1]: 81.17%
MEAN CORPUSCULAR HEMOGLOBIN [1]: 23.23 pg
MEAN CORPUSCULAR HEMOGLOBIN CONCENTRATION [1]: 36.97 G/DL
MEAN CORPUSCULAR VOLUME [1]: 62.82 fL
MONOCYTE [1]: 2%
NEUTROPHIL [1]: 16.5%
NUCLEATED RED BLOOD CELLS [1]: 0 /100WBC
PLATELET COUNT [1]: 1180.33 x10E3/uL
ALANINE AMINOTRANSFERASE [1]: 48.67 u/L
ALBUMIN [1]: 4.08 G/DL
ALKALINE PHOSPHATASE [1]: 360.67 u/L
ASPARTATE AMINOTRANSFERASE [1]: 85.5 u/L
BLOOD UREA NITROGEN [1]: 17.83 mg/dL
CARBON DIOXIDE [1]: 26.17 mmol/L
CHLORIDE [1]: 101.83 MEQ/L
CHOLESTEROL [1]: 71 mg/dL
CREATINE PHOSPHOKINASE [1]: 515.17 u/L
CREATININE [1]: 0.22 mg/dL
GLUCOSE [1]: 192.5 mg/dL
LACTATE DEHYDROGENASE [1]: 214.67 u/L
LIPASE [1]: 8.5 u/L
PHOSPHORUS [1]: 12.95 mg/dL
POTASSIUM [1]: 6.39 MEQ/L
SODIUM [1]: 142.38 MEQ/L
TOTAL BILIRUBIN [1]: 0.18 mg/dL
TOTAL PROTEIN [1]: 5.95 G/DL
URIC ACID [1]: 1.83 mg/dL
ABSOLUTE BASOPHIL [2]: 0 CELLS/uL
ABSOLUTE EOSINOPHIL [2]: 188.5 CELLS/uL
ABSOLUTE LYMPHOCYTE [2]: 12360.83 CELLS/uL
ABSOLUTE MONOCYTE [2]: 64.33 CELLS/uL
ABSOLUTE SEGMENTED NEUTROPHIL [2]: 1986.33 CELLS/uL
BASOPHIL [2]: 0%
EOSINOPHIL [2]: 1.33%
ERYTHROCYTE COUNT [2]: 5.52 x10E6/uL
HEMATOCRIT [2]: 35.82%
HEMOGLOBIN [2]: 13.25 G/DL
LEUKOCYTE COUNT [2]: 14.6 x10E3/uL
LYMPHOCYTE [2]: 84.5%
MEAN CORPUSCULAR HEMOGLOBIN [2]: 24.05 pg
MEAN CORPUSCULAR HEMOGLOBIN CONCENTRATION [2]: 36.98 G/DL
MEAN CORPUSCULAR VOLUME [2]: 64.97 fL
MONOCYTE [2]: 0.5%
NEUTROPHIL [2]: 13.67%
NUCLEATED RED BLOOD CELLS [2]: 0 /100WBC
PLATELET COUNT [2]: 1297.83 x10E3/uL
ALANINE AMINOTRANSFERASE [2]: 51.17 u/L
ALBUMIN [2]: 4.08 G/DL
ALKALINE PHOSPHATASE [2]: 393.17 u/L
ASPARTATE AMINOTRANSFERASE [2]: 111 u/L
BLOOD UREA NITROGEN [2]: 18.17 mg/dL
CARBON DIOXIDE [2]: 25 mmol/L
CHLORIDE [2]: 105.17 MEQ/L
CHOLESTEROL [2]: 65.5 mg/dL
CREATINE PHOSPHOKINASE [2]: 911.5 u/L
CREATININE [2]: 0.21 mg/dL
GLUCOSE [2]: 183 mg/dL
LACTATE DEHYDROGENASE [2]: 189 u/L
LIPASE [2]: 8.33 u/L
PHOSPHORUS [2]: 12.78 mg/dL
POTASSIUM [2]: 6.05 MEQ/L
SODIUM [2]: 144.57 MEQ/L
TOTAL BILIRUBIN [2]: 0.25 mg/dL
TOTAL PROTEIN [2]: 5.83 G/DL
URIC ACID [2]: 1.58 mg/dL
ABSOLUTE BASOPHIL [3]: 0 CELLS/uL
ABSOLUTE EOSINOPHIL [3]: 245 CELLS/uL
ABSOLUTE LYMPHOCYTE [3]: 12670.67 CELLS/uL
ABSOLUTE MONOCYTE [3]: 0 CELLS/uL
ABSOLUTE SEGMENTED NEUTROPHIL [3]: 1651 CELLS/uL
BASOPHIL [3]: 0%
EOSINOPHIL [3]: 1.67%
ERYTHROCYTE COUNT [3]: 5.81 x10E6/uL
HEMATOCRIT [3]: 35.97%
HEMOGLOBIN [3]: 13.47 G/DL
LEUKOCYTE COUNT [3]: 14.57 x10E3/uL
LYMPHOCYTE [3]: 87.33%
MEAN CORPUSCULAR HEMOGLOBIN [3]: 23.27 pg
MEAN CORPUSCULAR HEMOGLOBIN CONCENTRATION [3]: 37.43 G/DL
MEAN CORPUSCULAR VOLUME [3]: 62.03 fL
MONOCYTE [3]: 0%
NEUTROPHIL [3]: 11%
NUCLEATED RED BLOOD CELLS [3]: 0 /100WBC
PLATELET COUNT [3]: 1364.67 x10E3/uL
ALANINE AMINOTRANSFERASE [3]: 47.67 u/L
ALBUMIN [3]: 4.2 G/DL
ALKALINE PHOSPHATASE [3]: 292.33 u/L
ASPARTATE AMINOTRANSFERASE [3]: 78.67 u/L
BLOOD UREA NITROGEN [3]: 14.67 mg/dL
CARBON DIOXIDE [3]: 25 mmol/L
CHLORIDE [3]: 102.33 MEQ/L
CHOLESTEROL [3]: 80.67 mg/dL
CREATINE PHOSPHOKINASE [3]: 290.33 u/L
CREATININE [3]: 0.19 mg/dL
GLUCOSE [3]: 173.67 mg/dL
LACTATE DEHYDROGENASE [3]: 127.33 u/L
LIPASE [3]: 8.33 u/L
PHOSPHORUS [3]: 12.7 mg/dL
POTASSIUM [3]: 5.88 MEQ/L
SODIUM [3]: 145.47 MEQ/L
TOTAL BILIRUBIN [3]: 0.2 mg/dL
TOTAL PROTEIN [3]: 6.23 G/DL
URIC ACID [3]: 1.67 mg/dL
